# Measured values reported in patent EP4732839A1, “USE OF COMPOUND IN TREATMENT OF LIVER DISEASES” (priority 2023, dated 2025).
# Where “and” joins values, the source holds several entries; their conditions need not be identical. Identical values can stand only once.
# How the values were obtained:
# [1] = format: in vivo, C57BL/6J wild-type female mice
# Protocol: C57BL/6J wild-type female mice (6 weeks old) were randomly grouped. After administration at different doses, whole blood and liver tissues of the mice were separately collected at 1 h, 2 h, and 4 h for detection of a plurality of parameters to evaluate the effect of the drugs on the liver.
# Liver tissues and blood were collected at 1 h, 2 h, and 4 h after single dosing.
# The supernatant was collected and stored (-20 °C); • (3) IFN-α, IP-10, IL-6, and TNF-α were detected using an ELISA kit. • (C) Remaining liver tissue-HE staining and pathological evaluation. • (D) 1/2 blood (whole blood)-liver function parameter detection: AST (aspartate aminotransferase), ALT (alanine aminotransferase/glutamate pyruvate transaminase), ALP (alkaline phosphatase), ALB (albumin), and GGT (γ-glutamyl transferase). • (E) 1/2 blood-serum preparation-reserve for ELISA.
# hERG potassium channel = hERG potassium channel (Homo sapiens, UniProt Q12809); test: hERG whole-cell patch-clamp; format: cell-based; settings: whole-cell patch-clamp; read-out: hERG (IC50)
# Source text: The rapidly activated potassium channel encoded by human ether-a-go-go-related gene (hERG) is an important ion channel involved in the formation of cardiac action potential phase 3 repolarization. Drug-induced blockade of hERG channels can lead to delayed cardiac repolarization, manifested as QT interval prolongation on the electrocardiogram, known as long QT syndrome. Drug-induced delayed ventricular repolarization may, under certain circumstances, trigger fatal arrhythmias-torsade de pointes-type ventricular tachycardia. In this study, the whole-cell patch-clamp technique (the standard method for hERG safety assessment) was employed to evaluate the inhibitory effects of the small-molecule compounds on the hERG potassium channel and to assess the risk of ventricular repolarization toxicity.
# in vivo = test: in vivo
# Protocol: C57BL/6 mice, 8 weeks old, female/male, 27, supplier: SPF (Beijing) Biotechnology Co., Ltd.
# The body weight of the animals was measured and recorded daily.
# All groups were subjected to clinical observations before administration and 1 to 2 h after administration, and additional observations were performed if necessary. Deaths and mortality were checked twice daily. The observations should include, but are not limited to, the following: fur condition, activity, mental status, vomiting, diarrhea, and abnormal secretions around the eyes. All animals should be observed on the day of necropsy, and any abnormal findings should be recorded.
# The rectal temperature of all animals was measured and recorded at 0 h before administration and at 2 h, 4 h, 8 h and 24 h after administration.
# The experiment was terminated on day 7 after administration. A gross necropsy was performed to examine abdominal and thoracic organs for lesions, and the spleen and liver were collected for weighing.
# H22-luc = H22-luc orthotopic model, 3 mpk, IG, QW × 3, BLI 21 days post-dose, P < 0.0001
# Protocol: The cells were placed in an incubator at 37 °C with 5% CO2 and passaged every 1 to 2 days depending on the cell density.
# The cell concentration (H22-luc, 2.0E8/mL) was adjusted, and the cells were mixed well with Matrigel at a ratio of 1:1. The mixture was placed on ice for subsequent injection experiments, and was mixed thoroughly by shaking with Vortex before use.
# • (1) The mice were weighed before surgery and anesthetized by intraperitoneal injection of avertin at 0.15 mL/10 g body weight. […] The needle was inserted into the liver at a 30-degree angle relative to the liver surface. After the needle was inserted, the needle was made parallel to the tabletop and advanced in parallel for about 3 mm. 10 µL of H22-luc cell suspension was slowly injected, and a rapid whitening (white plaque) or turbid translucent vacuolation over most of the liver lobe in the injection area was observed. • (5) After injection, a cotton swab was used to apply slight pressure at the needle insertion site while the needle was slowly withdrawn. The cotton swab was removed until no bleeding was observed. • (6) The liver lobe was gently pushed back into the abdominal cavity, and the muscle layer and skin were sutured.
# The experimental data were analyzed using Graphpad Prism 8. The experimental data were expressed as mean ± SD.
# in vitro = settings: human, microsomes, pH 7.4
# Protocol: (§1) The metabolic stability of the compounds in in vitro liver microsomes was evaluated. The procedures and steps were as follows: At 37 °C, 1 µM of the compounds was incubated in 1 mg/mL liver microsomes. The reaction system was a 0.1 M potassium phosphate buffer (pH 7.4) containing 3 mmol/L MgCl2 and 1 mmol/L NADPH. At the beginning of the reaction, the small molecules and the liver microsomes were pre-incubated at 37 °C for 10 min, and subsequently a cofactor NADPH was added to initiate the metabolic reaction. The reaction was quenched at 0 min, 5 min, 10 min, 20 min, 30 min, and 60 min using three volumes of ice-cold methanol containing an internal standard (200 nM labetalol). After incubation at room temperature for 10 min, the samples were centrifuged at 4000 rpm at 4 °C for 20 min, and the supernatants were collected, diluted with chromatography-grade purified water in a 1:1 ratio, and then subjected to quantitative analysis. […] After a 6-minute chromatographic separation on a C18 column (50 × 2.1 mm; 2.6 µm) under a gradient mobile phase of 0.1% formic acid in water, the peaks corresponding to specified ionic signals were detected. […] The detailed operation process was as follows: • 1) The compound working solution was added to all 96-well reaction plates (T0, T5, T10, T20, T30, and T60) at 10 µL/well, except the blank wells. • 2) The microsomal solution was added to all the reaction wells (T0, T5, T10, T20, T30, T60, and blank wells) at 80 µL/well. • 3) The plates were pre-incubated at 37 °C for 10 min. • 4) After pre-incubation, NADPH was added to each reaction plate at 10 µL/well to initiate the reaction. • 5) At the set end time point, a 4 °C methanol solution (containing an internal standard: 200 nM labetalol) was added to each reaction plate at 300 µL/well to quench the reaction. • 6) Each plate was sealed and shaken for 10 min. • 7) The mixture was shaken well and centrifuged at 4000 rpm at 4 °C for 20 min. • 8) 300 µL of the supernatant was collected, and HPLC-grade water was added at 300 µL/well. The mixture was well mixed and then subjected to LC-MS analysis.
# (§2) The metabolic half-life (T1/2) and the metabolic clearance rate (CLint(mic)) (µL/min/mg) were calculated using a first-order kinetic equation.
# [2] = Liver microsome metabolic stability (human); settings: Human liver microsomes, 1 µM compound, 1 mg/mL, NADPH, 37 °C
# Protocol: as §1, §2
# [3] = Liver microsome metabolic stability (murine); settings: Murine liver microsomes, 1 µM compound, 1 mg/mL, NADPH, 37 °C
# Protocol: The metabolic stability of the compounds in in vitro liver microsomes was evaluated. The procedures and steps were as follows: At 37 °C, 1 µM of the compounds was incubated in 1 mg/mL liver microsomes. The reaction system was a 0.1 M potassium phosphate buffer (pH 7.4) containing 3 mmol/L MgCl2 and 1 mmol/L NADPH. At the beginning of the reaction, the small molecules and the liver microsomes were pre-incubated at 37 °C for 10 min, and subsequently a cofactor NADPH was added to initiate the metabolic reaction. The reaction was quenched at 0 min, 5 min, 10 min, 20 min, 30 min, and 60 min using three volumes of ice-cold methanol containing an internal standard (200 nM labetalol). After incubation at room temperature for 10 min, the samples were centrifuged at 4000 rpm at 4 °C for 20 min, and the supernatants were collected, diluted with chromatography-grade purified water in a 1:1 ratio, and then subjected to quantitative analysis. […] After a 6-minute chromatographic separation on a C18 column (50 × 2.1 mm; 2.6 µm) under a gradient mobile phase of 0.1% formic acid in water, the peaks corresponding to specified ionic signals were detected. […]
# as §2
# [4] = C57BL/6 mice, single intragastric administration
# Sequence of hERG potassium channel (Q12809 whole entry): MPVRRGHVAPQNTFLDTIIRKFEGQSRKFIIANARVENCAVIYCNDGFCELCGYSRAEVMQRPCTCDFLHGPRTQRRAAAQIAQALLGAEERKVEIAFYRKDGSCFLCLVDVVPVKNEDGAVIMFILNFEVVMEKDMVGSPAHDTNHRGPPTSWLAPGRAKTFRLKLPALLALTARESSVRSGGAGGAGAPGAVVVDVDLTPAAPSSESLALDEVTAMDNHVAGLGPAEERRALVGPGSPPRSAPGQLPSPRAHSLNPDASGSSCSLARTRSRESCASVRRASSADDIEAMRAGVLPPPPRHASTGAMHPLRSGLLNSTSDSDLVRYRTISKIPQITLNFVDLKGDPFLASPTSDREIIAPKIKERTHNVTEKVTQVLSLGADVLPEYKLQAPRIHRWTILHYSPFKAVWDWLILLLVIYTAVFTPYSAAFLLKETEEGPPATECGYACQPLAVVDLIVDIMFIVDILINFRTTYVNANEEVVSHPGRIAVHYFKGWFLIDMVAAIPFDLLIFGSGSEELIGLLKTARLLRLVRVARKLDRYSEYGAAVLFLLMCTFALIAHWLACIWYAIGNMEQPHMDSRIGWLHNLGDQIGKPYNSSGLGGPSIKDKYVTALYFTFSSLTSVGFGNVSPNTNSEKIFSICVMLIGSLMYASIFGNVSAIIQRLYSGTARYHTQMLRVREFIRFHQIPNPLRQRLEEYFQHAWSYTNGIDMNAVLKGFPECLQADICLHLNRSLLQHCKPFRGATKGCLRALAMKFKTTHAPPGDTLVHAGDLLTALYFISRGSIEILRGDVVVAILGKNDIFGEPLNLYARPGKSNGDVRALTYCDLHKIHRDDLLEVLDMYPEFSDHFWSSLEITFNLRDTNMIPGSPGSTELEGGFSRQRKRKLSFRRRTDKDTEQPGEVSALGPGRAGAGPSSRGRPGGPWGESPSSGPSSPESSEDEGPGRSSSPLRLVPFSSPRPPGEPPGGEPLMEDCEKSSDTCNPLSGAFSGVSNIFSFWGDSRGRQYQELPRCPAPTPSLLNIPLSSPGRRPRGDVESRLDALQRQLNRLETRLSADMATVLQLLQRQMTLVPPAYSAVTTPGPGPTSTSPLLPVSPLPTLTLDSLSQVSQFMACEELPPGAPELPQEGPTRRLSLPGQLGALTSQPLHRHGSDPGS
smiles,measurement,setting,value
COCCNc1nc(N)nc2ccc(Cc3ccc(CN4CCOCC4)cc3)nc12 [Compound II],AST levels,"[1]; all administration groups, no statistically significant differences",exceeded the normal reference range
same,ALP levels,[1]; all dose groups,within the normal reference value range
same,GGT levels,[1]; all dose groups,significantly lower than that of the control group
same,ALB level,[1]; at 2 h and 4 h,significantly lower than that of the control group
same,ALT elevation by clinical adverse reaction grading,"[1]; single administration, Grade 1 AE = ALT exceeding three times the normal value",did not result in ALT elevation to grade 1 AE
same,ALT,"[1]; whole blood, 3/10/20 mpk i.g. single dose, 1 h, 2 h, 4 h",increased in all groups
same,maximum body weight loss rate,"MC38-luc; MC38-luc liver metastasis model, compound II 3 mpk IG QW × 3, PD-1 10 mpk IP BIW × 2",3.9%
same,TGI,"MC38-luc; MC38-luc liver metastasis model, compound II 3 mpk IG QW × 3, PD-1 10 mpk IP BIW × 2, 17 days post-dose",63.3%
same,CD8+ T cells in peripheral lymph nodes,"MC38-luc; flow cytometry, compared with vehicle group",no significant difference
same,Kuffer cells in the liver tissue,"MC38-luc; flow cytometry, compared with vehicle group and PD-1 antibody group",significantly induced an increase
same,IC50,hERG potassium channel,4.3 µM and > 10 µM
same,Cage-side observation,"in vivo; 20 mg/kg, group 6, male animal No. 35, day 2",white secretions around the eyes
same,rectal temperature,"in vivo; 2 h after treatment, significant difference vs vehicle group, returned to normal 4 h, 8 h and 24 h",decreased
same,Adverse reactions at maximum tolerated dose/probability,in vivo; [4],White secretion around the eyes (1/6)
same,Weight loss at maximum tolerated dose: whether recovered,in vivo; [4],Yes
same,Weight loss rate at maximum tolerated dose,in vivo; [4],14%
same,With or without mouse death,in vivo; [4],No
same,body weight,"in vivo; male and female animals, 10-40 mg/kg single administration, began to recover from day 3 to day 7",decreased after the single administration
same,MTD at 168 h,"in vivo; mouse, in vivo, po",40 mg/kg
same,TGI,H22-luc,83.4%
same,half-life at 1 µM,in vitro,35.1 min
same,microsomal CLint at 1 µM,in vitro,39.5 µL/min/mg
same,k,[2],0.0197 L/min
same,k,[3],0.0460 L/min
